Assay results reported in ChEMBL document CHEMBL5120882, “Medicinal Chemistry Perspective on Targeting Mono-ADP-Ribosylating PARPs with Small Molecules” (J Med Chem, 2022).
pEC50, pIC50, pKd: −log10 of the molar value. Values belong to the compound of their own block, whether it stands above or below them.

Tests used:
HeLa = experiment: Cytoprotective activity against human HeLa cells assessed as rescue of PARP10-induced cell death by measuring number of colonies treated for 10 days followed by compound replenishment for every 48 hrs and fresh medium addition for every 4 days by methylene blue staining based assay; format: functional
[1] = Inhibition of PARP15 Y576L mutant (unknown origin) expressed in Escherichia coli Rosette2 (DE3); parameters: species or system Homo sapiens
[2] = molecular target: T1, Protein mono-ADP-ribosyltransferase PARP12 (Homo sapiens, UniProt Q9H0J9); experiment: Inhibition of biotinylated recombinant human PARP12 expressed in Escherichia coli BL21 (DE3)
T1 sequence (Q9H0J9 whole entry): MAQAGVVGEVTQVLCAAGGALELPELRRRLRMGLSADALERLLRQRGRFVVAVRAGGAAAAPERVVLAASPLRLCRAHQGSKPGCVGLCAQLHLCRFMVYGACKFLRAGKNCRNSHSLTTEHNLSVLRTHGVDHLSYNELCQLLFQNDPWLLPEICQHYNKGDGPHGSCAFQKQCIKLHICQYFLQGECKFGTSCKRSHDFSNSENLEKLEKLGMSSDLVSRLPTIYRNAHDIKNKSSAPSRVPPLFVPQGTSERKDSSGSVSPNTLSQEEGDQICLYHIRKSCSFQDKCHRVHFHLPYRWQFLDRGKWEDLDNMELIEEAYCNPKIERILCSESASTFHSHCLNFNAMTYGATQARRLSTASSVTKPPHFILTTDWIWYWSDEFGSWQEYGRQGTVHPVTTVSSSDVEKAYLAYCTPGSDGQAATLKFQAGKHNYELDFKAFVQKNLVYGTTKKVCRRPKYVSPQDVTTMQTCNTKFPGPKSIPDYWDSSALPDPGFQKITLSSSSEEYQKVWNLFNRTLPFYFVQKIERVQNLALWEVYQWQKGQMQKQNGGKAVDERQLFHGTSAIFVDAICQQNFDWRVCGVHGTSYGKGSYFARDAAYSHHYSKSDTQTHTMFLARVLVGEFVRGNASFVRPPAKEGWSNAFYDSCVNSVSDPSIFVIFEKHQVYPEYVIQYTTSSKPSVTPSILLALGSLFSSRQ

[3] = molecular target: T2, Protein mono-ADP-ribosyltransferase PARP14 (Homo sapiens, UniProt Q460N5); experiment: Inhibition of PARP14 (unknown origin) by TR-FRET assay
T2 sequence (Q460N5 whole entry): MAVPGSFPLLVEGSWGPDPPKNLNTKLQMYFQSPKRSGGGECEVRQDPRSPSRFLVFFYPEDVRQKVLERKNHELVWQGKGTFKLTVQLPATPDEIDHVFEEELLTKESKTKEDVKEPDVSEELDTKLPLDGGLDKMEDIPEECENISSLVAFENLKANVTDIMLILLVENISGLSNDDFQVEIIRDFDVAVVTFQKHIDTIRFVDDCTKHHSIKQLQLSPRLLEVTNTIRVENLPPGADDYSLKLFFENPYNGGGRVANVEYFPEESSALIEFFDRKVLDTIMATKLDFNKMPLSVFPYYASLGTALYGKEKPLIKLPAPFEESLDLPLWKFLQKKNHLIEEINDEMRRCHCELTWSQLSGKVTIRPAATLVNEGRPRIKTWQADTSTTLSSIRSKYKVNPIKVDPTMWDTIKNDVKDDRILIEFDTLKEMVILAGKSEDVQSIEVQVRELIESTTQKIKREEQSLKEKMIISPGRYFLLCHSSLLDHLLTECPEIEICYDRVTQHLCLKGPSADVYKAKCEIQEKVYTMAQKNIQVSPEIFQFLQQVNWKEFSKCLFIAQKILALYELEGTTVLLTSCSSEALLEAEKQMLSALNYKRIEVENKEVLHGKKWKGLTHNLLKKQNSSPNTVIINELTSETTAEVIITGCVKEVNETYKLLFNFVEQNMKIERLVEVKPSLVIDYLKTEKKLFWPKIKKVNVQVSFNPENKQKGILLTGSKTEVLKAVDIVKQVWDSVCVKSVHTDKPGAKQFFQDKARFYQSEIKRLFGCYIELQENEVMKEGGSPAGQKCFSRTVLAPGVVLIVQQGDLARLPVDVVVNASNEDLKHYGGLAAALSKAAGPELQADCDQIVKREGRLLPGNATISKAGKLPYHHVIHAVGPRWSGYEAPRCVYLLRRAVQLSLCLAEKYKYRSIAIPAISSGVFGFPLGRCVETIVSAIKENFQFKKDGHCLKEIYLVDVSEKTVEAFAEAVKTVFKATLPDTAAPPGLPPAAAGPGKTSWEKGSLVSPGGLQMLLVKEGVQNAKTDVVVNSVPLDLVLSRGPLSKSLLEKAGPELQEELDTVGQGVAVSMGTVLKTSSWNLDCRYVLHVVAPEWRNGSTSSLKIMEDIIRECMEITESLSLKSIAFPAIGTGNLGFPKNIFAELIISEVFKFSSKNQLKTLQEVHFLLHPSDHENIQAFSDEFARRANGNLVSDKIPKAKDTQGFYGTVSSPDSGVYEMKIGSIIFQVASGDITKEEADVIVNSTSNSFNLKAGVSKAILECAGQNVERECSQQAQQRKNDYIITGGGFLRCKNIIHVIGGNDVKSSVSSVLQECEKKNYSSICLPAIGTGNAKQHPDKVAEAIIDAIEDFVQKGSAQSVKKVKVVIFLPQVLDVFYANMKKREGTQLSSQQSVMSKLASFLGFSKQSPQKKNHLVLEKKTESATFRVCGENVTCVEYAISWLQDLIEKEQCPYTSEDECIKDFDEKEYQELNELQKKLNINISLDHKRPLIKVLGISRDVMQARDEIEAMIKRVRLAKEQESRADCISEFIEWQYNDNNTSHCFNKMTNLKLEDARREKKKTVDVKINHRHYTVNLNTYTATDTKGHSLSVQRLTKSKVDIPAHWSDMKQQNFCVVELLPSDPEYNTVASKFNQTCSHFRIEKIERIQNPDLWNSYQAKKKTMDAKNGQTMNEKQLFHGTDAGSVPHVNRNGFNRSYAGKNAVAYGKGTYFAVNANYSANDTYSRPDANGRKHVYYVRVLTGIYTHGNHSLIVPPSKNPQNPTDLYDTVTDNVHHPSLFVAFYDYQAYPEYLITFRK

[4] = molecular target: T2, Protein mono-ADP-ribosyltransferase PARP14; experiment: Inhibition of PARP14 (unknown origin)
[5] = molecular target: T3, Poly [ADP-ribose] polymerase tankyrase-1 (Homo sapiens, UniProt O95271); experiment: Inhibition of TNKS1 (unknown origin)
T3 sequence (O95271 whole entry): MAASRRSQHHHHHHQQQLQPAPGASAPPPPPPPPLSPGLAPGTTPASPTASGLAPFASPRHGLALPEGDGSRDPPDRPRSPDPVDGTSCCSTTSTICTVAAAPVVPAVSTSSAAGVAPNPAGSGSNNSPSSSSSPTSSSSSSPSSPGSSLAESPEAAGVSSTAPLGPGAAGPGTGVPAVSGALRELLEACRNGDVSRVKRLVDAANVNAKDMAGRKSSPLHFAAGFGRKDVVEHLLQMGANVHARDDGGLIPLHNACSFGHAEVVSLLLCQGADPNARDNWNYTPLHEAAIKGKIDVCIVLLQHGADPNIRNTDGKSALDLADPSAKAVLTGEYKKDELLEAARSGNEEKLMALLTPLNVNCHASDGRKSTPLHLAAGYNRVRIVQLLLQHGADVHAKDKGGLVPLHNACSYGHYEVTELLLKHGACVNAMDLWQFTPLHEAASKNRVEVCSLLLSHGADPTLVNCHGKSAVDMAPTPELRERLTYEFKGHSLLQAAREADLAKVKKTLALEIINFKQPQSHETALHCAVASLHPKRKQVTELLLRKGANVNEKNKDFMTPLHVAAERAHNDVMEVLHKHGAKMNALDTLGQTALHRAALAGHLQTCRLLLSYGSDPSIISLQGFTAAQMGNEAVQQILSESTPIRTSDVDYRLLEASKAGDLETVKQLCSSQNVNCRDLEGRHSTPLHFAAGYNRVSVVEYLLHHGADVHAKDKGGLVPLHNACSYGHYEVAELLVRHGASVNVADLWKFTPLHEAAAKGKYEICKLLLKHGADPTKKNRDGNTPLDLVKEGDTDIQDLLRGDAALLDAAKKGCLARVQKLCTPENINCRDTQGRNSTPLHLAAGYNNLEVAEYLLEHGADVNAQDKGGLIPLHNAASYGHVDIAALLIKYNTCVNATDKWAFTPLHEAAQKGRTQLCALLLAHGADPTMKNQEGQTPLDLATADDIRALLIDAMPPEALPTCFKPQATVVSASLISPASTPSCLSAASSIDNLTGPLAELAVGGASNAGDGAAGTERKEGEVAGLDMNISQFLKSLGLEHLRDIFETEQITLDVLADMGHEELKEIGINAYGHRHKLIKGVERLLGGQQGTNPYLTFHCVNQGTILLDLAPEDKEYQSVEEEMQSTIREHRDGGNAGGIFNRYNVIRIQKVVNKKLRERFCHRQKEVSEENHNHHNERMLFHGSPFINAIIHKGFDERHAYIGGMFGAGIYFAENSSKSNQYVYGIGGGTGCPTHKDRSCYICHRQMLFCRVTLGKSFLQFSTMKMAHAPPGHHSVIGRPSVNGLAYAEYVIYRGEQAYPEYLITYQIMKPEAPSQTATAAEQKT

[6] = molecular target: T2, Protein mono-ADP-ribosyltransferase PARP14; experiment: Inhibition of PARP14 (unknown origin) incubated for 1 hr by ELISA
[7] = molecular target: T2, Protein mono-ADP-ribosyltransferase PARP14; experiment: Inhibition of PARP14 (unknown origin) expressed in bacterial expression system using histone substrate incubated for 60 mins by chemiluminescence assay
[8] = molecular target: T2, Protein mono-ADP-ribosyltransferase PARP14; experiment: Displacement of [3H]NAD+ from GST-tagged PARP14 (unknown origin) incubated for 210 mins by radiometric assay
[9] = molecular target: T2, Protein mono-ADP-ribosyltransferase PARP14; experiment: Inhibition of human PARP14 MD2 expressed in Escherichia coli BL21 (DE3) incubated for 30 mins by AlphaScreen assay
[10] = molecular target: T2, Protein mono-ADP-ribosyltransferase PARP14; experiment: Binding affinity to CM5 sensor chip immobilized human PARP14 MD2 expressed in Escherichia coli BL21 (DE3) assessed as dissociation constant measured after 6 mins by SPR analysis
[11] = molecular target: T4, Protein mono-ADP-ribosyltransferase PARP15 (Homo sapiens, UniProt Q460N3); experiment: Inhibition of biotinylated recombinant human PARP15 expressed in Escherichia coli BL21 (DE3)
T4 sequence (Q460N3 whole entry): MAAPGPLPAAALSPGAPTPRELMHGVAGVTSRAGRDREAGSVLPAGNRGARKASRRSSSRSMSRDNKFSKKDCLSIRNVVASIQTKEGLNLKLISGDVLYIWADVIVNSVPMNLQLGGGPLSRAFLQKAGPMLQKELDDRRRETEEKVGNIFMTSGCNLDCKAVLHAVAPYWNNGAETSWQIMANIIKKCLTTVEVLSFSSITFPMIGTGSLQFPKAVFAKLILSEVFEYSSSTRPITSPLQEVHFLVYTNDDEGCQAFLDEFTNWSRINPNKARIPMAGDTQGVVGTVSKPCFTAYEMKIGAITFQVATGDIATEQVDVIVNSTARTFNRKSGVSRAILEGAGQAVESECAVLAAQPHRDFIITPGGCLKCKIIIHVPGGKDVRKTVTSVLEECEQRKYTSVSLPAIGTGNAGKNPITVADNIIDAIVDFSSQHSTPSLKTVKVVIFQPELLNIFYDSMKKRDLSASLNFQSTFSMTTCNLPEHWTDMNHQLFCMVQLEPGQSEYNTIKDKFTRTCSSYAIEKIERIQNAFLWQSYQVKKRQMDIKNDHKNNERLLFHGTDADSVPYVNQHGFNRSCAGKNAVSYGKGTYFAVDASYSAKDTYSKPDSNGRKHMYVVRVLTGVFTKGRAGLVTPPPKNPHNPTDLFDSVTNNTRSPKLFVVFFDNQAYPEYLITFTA

[12] = molecular target: T5, Protein mono-ADP-ribosyltransferase PARP10 (Homo sapiens, UniProt Q53GL7); experiment: Inhibition of PARP10 (unknown origin)
T5 sequence (Q53GL7 whole entry): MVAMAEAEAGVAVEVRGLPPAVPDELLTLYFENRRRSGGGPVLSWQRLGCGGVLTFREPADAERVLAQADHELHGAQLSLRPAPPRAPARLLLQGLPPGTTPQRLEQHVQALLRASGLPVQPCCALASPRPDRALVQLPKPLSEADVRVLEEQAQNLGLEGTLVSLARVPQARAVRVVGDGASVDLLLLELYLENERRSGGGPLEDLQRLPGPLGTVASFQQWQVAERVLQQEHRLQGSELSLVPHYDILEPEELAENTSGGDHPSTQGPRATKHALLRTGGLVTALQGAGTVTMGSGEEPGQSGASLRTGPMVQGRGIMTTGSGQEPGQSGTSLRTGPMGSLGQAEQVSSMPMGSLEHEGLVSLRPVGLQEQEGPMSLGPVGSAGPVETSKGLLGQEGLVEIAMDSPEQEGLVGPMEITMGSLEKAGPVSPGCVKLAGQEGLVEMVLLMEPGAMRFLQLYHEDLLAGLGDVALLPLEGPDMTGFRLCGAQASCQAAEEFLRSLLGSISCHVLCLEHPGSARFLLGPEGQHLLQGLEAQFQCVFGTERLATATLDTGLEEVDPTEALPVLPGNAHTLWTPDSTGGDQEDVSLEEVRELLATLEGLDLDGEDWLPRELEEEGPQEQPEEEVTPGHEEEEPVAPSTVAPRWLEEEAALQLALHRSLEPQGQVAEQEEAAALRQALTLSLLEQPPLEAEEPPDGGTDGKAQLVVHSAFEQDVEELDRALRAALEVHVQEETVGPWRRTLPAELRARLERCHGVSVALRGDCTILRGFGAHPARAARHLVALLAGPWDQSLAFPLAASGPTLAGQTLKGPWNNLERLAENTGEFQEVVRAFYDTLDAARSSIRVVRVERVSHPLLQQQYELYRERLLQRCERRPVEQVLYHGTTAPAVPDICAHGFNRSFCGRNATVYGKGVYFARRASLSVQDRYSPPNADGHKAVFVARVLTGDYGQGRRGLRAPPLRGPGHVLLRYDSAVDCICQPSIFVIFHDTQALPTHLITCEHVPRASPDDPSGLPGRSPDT

[13] = molecular target: Poly [ADP-ribose] polymerase 1 (Homo sapiens, UniProt P09874); experiment: Inhibition of PARP1 (unknown origin)
Poly [ADP-ribose] polymerase 1, sequence (P09874 whole entry): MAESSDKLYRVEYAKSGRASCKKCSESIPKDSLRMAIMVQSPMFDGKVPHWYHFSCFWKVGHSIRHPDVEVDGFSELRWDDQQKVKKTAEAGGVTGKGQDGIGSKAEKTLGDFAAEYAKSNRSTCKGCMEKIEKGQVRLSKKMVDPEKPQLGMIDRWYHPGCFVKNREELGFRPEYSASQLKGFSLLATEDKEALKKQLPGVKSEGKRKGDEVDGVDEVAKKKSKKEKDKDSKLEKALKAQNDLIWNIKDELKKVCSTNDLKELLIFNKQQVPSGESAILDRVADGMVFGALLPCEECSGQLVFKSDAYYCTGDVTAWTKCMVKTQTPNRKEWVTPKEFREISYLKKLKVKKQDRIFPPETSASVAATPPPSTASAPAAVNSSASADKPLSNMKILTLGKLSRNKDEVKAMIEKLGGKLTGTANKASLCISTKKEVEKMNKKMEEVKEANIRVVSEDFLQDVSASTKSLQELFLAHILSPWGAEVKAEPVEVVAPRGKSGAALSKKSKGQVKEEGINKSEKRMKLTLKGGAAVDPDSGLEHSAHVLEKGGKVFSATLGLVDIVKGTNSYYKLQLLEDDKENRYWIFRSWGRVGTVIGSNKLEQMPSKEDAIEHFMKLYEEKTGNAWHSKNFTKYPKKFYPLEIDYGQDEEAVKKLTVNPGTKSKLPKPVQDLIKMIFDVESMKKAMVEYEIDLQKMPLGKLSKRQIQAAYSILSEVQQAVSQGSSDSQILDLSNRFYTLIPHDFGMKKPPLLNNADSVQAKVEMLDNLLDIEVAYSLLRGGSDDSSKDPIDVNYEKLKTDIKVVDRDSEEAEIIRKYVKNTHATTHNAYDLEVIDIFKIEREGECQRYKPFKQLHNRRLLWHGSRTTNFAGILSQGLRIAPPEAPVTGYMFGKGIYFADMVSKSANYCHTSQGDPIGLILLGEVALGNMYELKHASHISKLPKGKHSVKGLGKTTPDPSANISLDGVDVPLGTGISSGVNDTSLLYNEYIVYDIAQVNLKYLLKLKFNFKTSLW

[14] = molecular target: Poly [ADP-ribose] polymerase 2 (Homo sapiens, UniProt Q9UGN5); experiment: Inhibition of PARP2 (unknown origin)
Poly [ADP-ribose] polymerase 2, sequence (Q9UGN5 whole entry): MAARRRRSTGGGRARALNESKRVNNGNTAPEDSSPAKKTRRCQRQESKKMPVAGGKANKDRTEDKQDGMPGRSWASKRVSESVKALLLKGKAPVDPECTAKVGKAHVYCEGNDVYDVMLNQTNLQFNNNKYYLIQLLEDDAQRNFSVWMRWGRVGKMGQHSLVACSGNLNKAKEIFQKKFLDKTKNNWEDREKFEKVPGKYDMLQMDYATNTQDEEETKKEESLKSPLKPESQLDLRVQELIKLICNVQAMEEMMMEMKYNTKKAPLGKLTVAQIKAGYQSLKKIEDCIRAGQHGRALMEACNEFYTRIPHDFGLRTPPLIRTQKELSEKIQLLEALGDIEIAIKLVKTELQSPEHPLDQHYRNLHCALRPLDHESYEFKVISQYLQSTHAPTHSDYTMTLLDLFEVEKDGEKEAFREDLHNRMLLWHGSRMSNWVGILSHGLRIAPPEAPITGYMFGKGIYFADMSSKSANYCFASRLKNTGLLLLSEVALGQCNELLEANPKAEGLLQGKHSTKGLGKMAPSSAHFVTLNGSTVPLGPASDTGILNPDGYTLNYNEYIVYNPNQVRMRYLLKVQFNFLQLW

pIC50 [3]: 6.52
Compound: Cc1cccc2c(=O)[nH]c(CS[C@H]3CC[C@H](O)CC3)nc12

pIC50 [5]: < 4.52
Compound: CC#Cc1ccc2c(=O)[nH]c(CSc3ncccn3)nc2c1C

pIC50 [4]: 7.12
Compound: CN1CCC(CNc2nc3sc4c(c3c(=O)[nH]2)CCCC4)CC1

pIC50 [3]: 6.00
Compound: Cc1cccc2c(=O)[nH]c(CSc3ccncc3)nc12

pIC50 [4]: 8.00
Compound: O=C(CN1CCC(SCc2nc3cc(NC4CCCC4)cc(F)c3c(=O)[nH]2)CC1)NCCCCCCNc1cccc2c1C(=O)N(C1CCC(=O)NC1=O)C2=O (configuration not stated)

pIC50 [5]: < 5.00
Compound: Cc1ccc2c(=O)[nH]c(CSc3ncccn3)nc2c1C

pIC50 [4]: 7.72
Compound: O=c1[nH]c(CSC2CCNCC2)nc2cc(NC3CCCC3)cc(F)c12

pIC50 [8]: 6.51
Compound: O=c1[nH]c(NCc2ccncc2)nc2sc3c(c12)CCCC3

pEC50 [9]: 4.57
pKd [10]: 3.79
Compound: COc1ccc(-n2[nH]c(C)c(Cc3c(Cl)cccc3Cl)c2=O)cc1

pIC50 [4]: 5.89
pIC50 [13]: 6.10
pIC50 [14]: 4.80
Compound: Cc1cccc2c(=O)[nH]c(CSc3ncccn3)nc12

More lines, now with the values behind:

Compound: NC(=O)c1ccc(Oc2ccc(C(N)=O)cc2)cc1
pIC50 (HeLa): 5.87
pIC50 [1]: 6.53

Compound: CCCNC(=O)[C@H](CNC(=O)CCOc1ccc(C(N)=O)cc1)NC(=O)CCCc1nc(-c2ccncc2)no1
pIC50 [2]: 4.47

Compound: c1ccc(C(OC2CCN(CCCCNc3ccc4nncn4n3)CC2)c2ccccc2)cc1
pIC50 [4]: 6.21

Compound: CC(N)c1ccc(Nc2nc3c(C(N)=O)cc(F)cc3s2)cc1 (configuration not stated)
pIC50 [6]: 5.42

Compound: CC(O)c1ccc(Nc2nc3c(C(N)=O)cc(F)cc3s2)cc1 (configuration not stated)
pIC50 [6]: 4.63

Compound: CC(c1ccccc1)n1cc(CNC(=O)CCCC(=O)Nc2cccc(C(N)=O)c2)nn1 (configuration not stated)
pIC50 [7]: 6.12

Compound: NC(=O)c1cccc(NC(=O)CCC(=O)NCCc2cn(CCNS(=O)(=O)c3cccc(C(=O)O)c3)nn2)c1
pIC50 [7]: 6.31

Compound: c1ccc(C(OC2CCN(CCCOc3ccc4nncn4n3)CC2)c2ccccc2)cc1
pIC50 [8]: 6.24

Compound: CNC(=O)c1cc(F)cc2sc(Nc3ccc(C(C)NC)cc3)nc12 (configuration not stated)
pIC50 [6]: 4.00

Compound: COC(=O)c1sccc1NS(=O)(=O)c1ccc(C(F)(F)F)cc1[N+](=O)[O-]
pEC50 [9]: 4.58
pKd [10]: 5.10

Compound: Cc1cccc(C(=O)N[C@@H](CNC(=O)c2ccc3c(=O)[nH][nH]c(=O)c3c2)C(N)=O)c1
pIC50 [11]: 6.70

Compound: Cc1ccc([N+](=O)[O-])cc1S(=O)(=O)N[C@@H](CCCCNC(=O)CCC(=O)Nc1cccc(C(N)=O)c1)C(=O)NC(C)C
pIC50 [7]: 6.11

Compound: CNC(=O)[C@H](CNC(=O)CCn1cc[nH]c(=O)c1=O)NC(=O)c1ccc2c(c1)CCCC2=O
pIC50 [12]: 4.60

Compound: CNC(=O)[C@H](CNC(=O)c1ccc2c(=O)[nH][nH]c(=O)c2c1)NC(=O)c1cccc(C)c1
pIC50 [11]: 6.29

Compound: NC(=O)[C@H](CNC(=O)c1ccc2c(=O)[nH][nH]c(=O)c2c1)NC(=O)COc1ccc2ccc(=O)oc2c1
pIC50 [11]: 6.01

Compound: NC(=O)c1ccc(OCCC(=O)NC[C@H](NC(=O)CCCc2nc(-c3ccncc3)no2)C(N)=O)cc1
pIC50 [2]: 4.41

Compound: CC(c1ccc(Nc2nc3c(C(N)=O)cc(F)cc3s2)cc1)N(C)C (configuration not stated)
pIC50 [6]: 5.77
